Laboratory results from paper PMC10927086, “Effects of structurally distinct human HDAC6 and HDAC6/HDAC8 inhibitors against S. mansoni larval and adult worm stages” (PLOS Neglected Tropical Diseases, 2024).
Like-named read-outs stand apart in the source and are kept apart here.

What was measured:
[1] = system: S. mansoni eggs laid by worm pairs; assay: Egg counts and egg maturation staging (Vogel and Prata) in vitro; assay type: cell-based, Schistosoma mansoni; conditions: for percent of eggs that are viable at the given maturation stage at 20 µM / percent of eggs that are viable at the given maturation stage at 50 µM: Schistosoma mansoni
Excerpt: The eggs produced by worm pairs in vitro were counted at day 3 upon treatment using an inverted Leica DM IL microscope (Leica Microsystems, Wetzlar, Germany). Images were captured with a BX41 Olympus (Olympus, Tokyo, Japan) microscope and a brightfield objective 10× served by an Olympus DP23 microscope digital camera and visualized using “CellSens Entry” software (version 3.1.1). Egg maturation morphological score was assigned based on the Vogel and Prata’s staging system of egg maturation previously reported.
Therefore at 72 h upon worm pairs treatment the eggs were counted and classified by microscopic observation according to the Vogel and Prata staging system of egg maturation and grouped as immature (stages I and II), intermediate/developed (stages III–V), viable or damaged eggs.
Panel B. Histograms represent the percentages of eggs at different maturation stages +/- SEM counted at 72 h after treatment; 5–6 microscopy images of at least 3 independent experiments were analyzed. Filled red triangles indicate viable eggs at stages I–II (immature); empty red triangles indicate damaged/morphological abnormal eggs at stages I–II (immature); filled red arrows indicate viable eggs at stages III–V (intermediate/developed); empty red arrows indicate damaged/morphological abnormal eggs at stages III-V; ef, egg fragments; sp, sperm cells; oc, oocyte. Scale Bars = 200 μm.

[2] = system: adult S. mansoni worm pairs (ovary, ootype, vitellarium, gut); assay: Carmine-red staining and confocal laser scanning microscopy of adult worm pairs; assay type: cell-based, Schistosoma mansoni; conditions: 72 h
Experimental: Carmine Red staining was performed as previously described. […] Images were collected as a single stack.
To characterize the phenotypic alterations induced by compound treatment in more detail, carmine-red staining, followed by confocal laser scanning microscopy (CLSM) analysis was performed (Fig 5). Sublethal doses of compounds were chosen to preserve the overall parasite viability and pairing. For each compound, 3–5 couples in two independent experiments were analyzed and images of ootype, ovary, vitellarium, testis, gut, and parenchyma were recorded. […] The vitellarium retains a preserved structure in all analyzed samples. […] Accumulation of carmine-red positive particle aggregates was also present in the lumen of the NF2839-treated male worms (Fig 5).
Fig 5 Confocal microscopy of carmine-red stained adult worm pairs treated with quinolone-based HDAC inhibitors. […] The ovary, ootype and gut are shown. Immature oocytes (io), mature oocytes (mo), ootype (ot) and gastrodermis (ga) are labeled. In the Figure, red filled triangles indicate degenerated mo; empty red triangles indicate egg fragments in the ootypes; asterisks indicate deformed egg in the ootype and carmine red aggregates in the gut lumen, filled red arrows indicate the ga in the gut. Scale bars: 50 μm.

[3] = 72 h, NF2839 5 and 10 μM, NF2836 20 and 50 μM

**Q.** Which results are given for `Cn1c(=O)c(OCc2ccc(C(=O)NO)cc2)c(C2CCCCC2)c2ccccc21` [NF2836]?
**A.** % Stage I/II damaged ([1]; 20 µM, exp.1): 97.1%; %Stage III/IV/V damaged ([1]; 20 µM, exp.1): 0%; Stage I/II damaged counts ([1]; 20 µM, exp.1): 608; Stage I/II viable (egg counts) ([1]; 20 µM, exp.1): 18; Stage II/IV/V viable (egg counts) ([1]; 20 µM, exp.1): 0; Stage III/IV/V damaged (egg counts) ([1]; 20 µM, exp.1): 0; egg counts ([1]; 20 µM, exp.1): 626; % Stage I/II damaged ([1]; 20 µM, exp.2): 16.0%; %Stage III/IV/V damaged ([1]; 20 µM, exp.2): 0%; Stage I/II damaged counts ([1]; 20 µM, exp.2): 76; Stage I/II viable (egg counts) ([1]; 20 µM, exp.2): 378; Stage II/IV/V viable (egg counts) ([1]; 20 µM, exp.2): 19; Stage III/IV/V damaged (egg counts) ([1]; 20 µM, exp.2): 0; % Stage I/II damaged ([1]; 20 µM, exp.3): 79.8%; %Stage III/IV/V damaged ([1]; 20 µM, exp.3): 0%; Stage I/II damaged counts ([1]; 20 µM, exp.3): 408; Stage I/II viable (egg counts) ([1]; 20 µM, exp.3): 103; Stage II/IV/V viable (egg counts) ([1]; 20 µM, exp.3): 0; Stage III/IV/V damaged (egg counts) ([1]; 20 µM, exp.3): 0; egg counts ([1]; 20 µM, exp.3): 511; % Stage I/II damaged, Media ([1]; 20 µM, mean of experiments): 64.3%; %Stage III/IV/V damaged, Media ([1]; 20 µM, mean of experiments): 0%; % Stage I/II damaged ([1]; 50 µM, exp.1): 99.8%; %Stage III/IV/V damaged ([1]; 50 µM, exp.1): 0%; Stage I/II damaged counts ([1]; 50 µM, exp.1): 448; Stage I/II viable (egg counts) ([1]; 50 µM, exp.1): 1; egg counts ([1]; 50 µM, exp.1): 449; % Stage I/II damaged ([1]; 50 µM, exp.2): 92.6%; %Stage III/IV/V damaged ([1]; 50 µM, exp.2): 0%; Stage I/II damaged counts ([1]; 50 µM, exp.2): 287; Stage I/II viable (egg counts) ([1]; 50 µM, exp.2): 23; egg counts ([1]; 50 µM, exp.2): 310; % Stage I/II damaged, Media ([1]; 50 µM, mean of experiments): 96.2%; %Stage III/IV/V damaged, Media ([1]; 50 µM, mean of experiments): 0%; egg damage / viability [1, 3]: eggs appeared seriously damaged and not viable; egg maturation (Vogel and Prata staging) [1, 3]: essentially all eggs were arrested in stage I/II; number of eggs laid by worm pairs [1, 3]: did not observe a decrease in the number of eggs; percent of eggs that are viable at the given maturation stage at 20 µM ([1]; 20 µM, exp.1, read-out: % Stage I/II viable): 2.9%; percent of eggs that are viable at the given maturation stage at 20 µM ([1]; 20 µM, exp.1, read-out: %Stage II/IV/V viable): 0%; percent of eggs that are viable at the given maturation stage at 20 µM ([1]; 20 µM, exp.2, read-out: % Stage I/II viable): 79.6%; percent of eggs that are viable at the given maturation stage at 20 µM ([1]; 20 µM, exp.2, read-out: %Stage II/IV/V viable): 4%; percent of eggs that are viable at the given maturation stage at 20 µM ([1]; 20 µM, exp.3, read-out: % Stage I/II viable): 20.2%; percent of eggs that are viable at the given maturation stage at 20 µM ([1]; 20 µM, exp.3, read-out: %Stage II/IV/V viable): 0%; percent of eggs that are viable at the given maturation stage at 20 µM ([1]; 20 µM, mean of experiments, read-out: % Stage I/II viable, Media): 34.2%; percent of eggs that are viable at the given maturation stage at 20 µM ([1]; 20 µM, mean of experiments, read-out: %Stage II/IV/V viable, Media): 1.3%; percent of eggs that are viable at the given maturation stage at 50 µM ([1]; 50 µM, exp.1, read-out: % Stage I/II viable): 0.223%; percent of eggs that are viable at the given maturation stage at 50 µM ([1]; 50 µM, exp.1, read-out: %Stage II/IV/V viable): 0%; percent of eggs that are viable at the given maturation stage at 50 µM ([1]; 50 µM, exp.2, read-out: % Stage I/II viable): 7.4%; percent of eggs that are viable at the given maturation stage at 50 µM ([1]; 50 µM, exp.2, read-out: %Stage II/IV/V viable): 0%; percent of eggs that are viable at the given maturation stage at 50 µM ([1]; 50 µM, mean of experiments, read-out: % Stage I/II viable, Media): 3.8%; percent of eggs that are viable at the given maturation stage at 50 µM ([1]; 50 µM, mean of experiments, read-out: %Stage II/IV/V viable, Media): 0%; samples with decrease of cellularity in the ovary mature compartment ([2]; 50 uM): 5/11; ootype content ([2]; higher concentration (NF2836 50 μM, NF2839 10 μM)): either an empty ootype or no properly developed eggs and/or egg fragments; gut morphology ([2]; higher concentration (NF2836 50 μM, NF2839 10 μM), all worms, in particular males): gut dilation with a dramatic decrease in the number of surface amplification and lumen epithelial thinning; ootype containing damaged eggs ([2]; lower concentrations (NF2836 20 μM, NF2839 5 μM)): 5/7; overall morphology of the ovary ([2]; sublethal doses): seemed not to be affected
